According to US20210322327A1, “EXTRACELLULAR VESICLES COMPRISING STING-AGONIST” (Codiak BioSciences, Inc., priority 2018, published 2021):

What was measured:
[1] = test system: OVA-reactive splenocytes; test: IFNγ ELISpot of splenocytes with OVA peptide SIINFEKL; format: in vivo, C57BL/6 mice
Experimental: As an orthogonal method to measure antigen-specific immunity, IFNγ-expression was measured by ELISpot according to standard protocols (ImmunoSpot®; Cellular Technology Limited). Splenocytes were homogenized to a single-cell suspension and plated (200,000 cells/well) in a plate coated with an anti-IFNγ antibody. The OVA peptide SIINFEKL was added to the cells for 18 hours to induce IFNγ production, cells were washed from the plate, and plate-bound IFNγ was detected using an orthogonal antibody (FIG. 41D). The total number of reactive spots per plate were counted and compared across groups using ImmunoSpot® software (Cellular Technology Limited).

[2] = test system: A20 lymphoma cells; test: CIVO intratumoral microinjection, IFNβ mRNA by in situ hybridization; format: in vivo, BALB/cAnNHsd mice; conditions: high dose free (printed 2 g), four hours post-injection
Experimental: All experiments in mice were approved by IACUC Board of Presage Biosciences, Seattle, Wash. (Protocol number PR-001) and were performed at Presage in accordance with relevant guidelines and regulations. All relevant procedures were performed under anesthesia and all efforts were made to minimize pain and suffering. Female BALB/cAnNHsd mice (Envigo) with an average weight of 18 gm were used for experiments at 5-7 weeks of age. For generating A20 allografts, mice were inoculated with 1 million A20 cells in 100 μl inoculation volume.
CIVO intra-tumoral microinjections were performed as described in Klinghoffer et al. (2016) Science Translational Medicine. Briefly, mice (n=6 per time point, 4 and 24 hours) were enrolled in microinjection studies when implanted tumors reached the following approximate dimensions: 14 mm (length), 10 mm (width) and 7 mm (depth). […]
Images of every cell from each tissue section stained were captured by digital, automated, high-resolution whole-tissue scanning (3D Histech Panoramic 250 Flash). Tumor responses were quantified from image files from each tissue section using Presage's custom CIVO Analyzer image analysis platform. […] In order to mitigate the influence of pre-existing necrosis on biomarker measurements, injection sites that fall within largely acellular tumor regions are excluded prior to quantitative analysis. […]

[3] = test system: B16F10 murine melanoma cells; test: Advanced B16F10 melanoma tumor growth; format: in vivo, C57BL/6 mice; conditions: days 10, 13, 16
Experimental: Treatment was started when tumor volume reached ˜ 50 mm3. To test the activity in advanced tumor, C57BL/6 mice were inoculated subcutaneously with 1×10^6 B16F10 murine melanoma cells (n=5 mice per group) and waited until tumor volume reached ˜100 mm^3. Ten, thirteen, and sixteen days post-inoculation, the mice were injected intratumorally with exosomes, 30 μg of free 3-3 cAIMPdFSH, 0.3 μg of free 3-3 cAIMPdFSH, 0.1 μg of 3-3 cAIMPdFSH loaded in PTGFRN-overexpressing exosomes, or 0.3 μg of 3-3 cAIMPdFSH loaded in PTGFRN-overexpressing exosomes. Tumor volumes were measured daily until day 28, and animals were sacrificed when tumor volume reached 2000 mm^3.

[4] = test system: CT26.CL25 cells; test: CT26.CL25 colorectal tumor growth; format: in vivo, BALB/c mice; conditions: 0.012 μg free, days 13, 16, 19
Experimental: To test and expand in vivo efficacy to other types of tumors, BALB/c mice were inoculated subcutaneously with 5×10^5 CT26.CL25 cells (ATCC®; CRL-2639™), a murine colorectal cancer cell line engineered to stably express beta-galactosidase, or 5×10^5 CT26.WT cells (ATCC®; CRL-2638™) (n=5-7 mice per group). Thirteen, sixteen, and nineteen days post-inoculation the mice were injected intratumorally into CT26.CL25 tumor with exosomes, 0.012 μg of free 3-3 cAIMPdFSH, or 0.012 μg-3 cAIMPdFSH loaded in PTGFRN-overexpressing exosomes and into CT26.WT tumor with PBS, exosomes, 100 μg of free ML RR-S2 CDA, or 0.2 μg-3 cAIMPdFSH loaded in PTGFRN-overexpressing exosomes.

[5] = Plasma pharmacokinetics after intravenous injection; format: in vivo, C57BL/6 mice; conditions: 20 μg free
Experimental: To examine the pharmacokinetics of STING agonist in mouse plasma, naïve C57BL/6 mice were injected intravenously with 20 μg of free 3-3 cAIMPdFSH, or 0.1 μg, 0.3 μg, 0.6 μg 3-3 cAIMPdFSH loaded in PTGFRN-overexpressing exosomes. One, five, ten, and thirty minutes injection, blood was taken, and plasma were prepared. The concentration of 3-3 cAIMPdFSH was measured by LC-MS/MS, as described in Example 1.

Row | Structure (SMILES) | OVA-reactivity (IFNγ spots) ([1]; 0.2 μg IP) | OVA-reactivity (IFNγ spots) ([1]; 20 μg IP) | IFNβ mRNA levels [2] | tumor growth compared to exosomes control ([3]; 0.3 μg free, start ~100 mm^3) | tumor burden compared to exosomes control ([3]; 30 μg free) | tumor growth compared to control [4] | half-life in plasma [5] [min]
1 | Nc1ncnc2c1ncn2[C@@H]1O[C@@H]2COP(O)(=S)O[C@@H]3C(O)[C@@H](COP(O)(=S)O[C@H]2[C@H]1O)O[C@H]3n1cnc2c(N)ncnc21 (stereo partly shown) [ML RR-S2 CDA] | very low levels of OVA-reactivity | highly reactive | comparable between the high dose STING agonist and the PTGFRN O/E EXOSTING™ groups |  |  |  | 
2 | Nc1ncnc2c1ncn2[C@@H]1O[C@@H]2COP(=O)(S)O[C@H]3[C@@H](F)[C@H](n4cnc5c(=O)[nH]cnc54)O[C@@H]3COP(O)(=S)O[C@H]2[C@H]1F (stereo partly shown) [3-3 cAIMPdFSH, 3′3′-cAIMPdFSH] |  |  |  | tumor growth was not affected | great reduction of tumor burden | moderately attenuated tumor growth | 1.2
